From US11261152B2, “Inhibitors of the N-terminal domain of the androgen receptor” (The Regents of the University of California, priority 2017, dated 2022)
Structures can show the parent of a compound that is named as a salt.

Biological target: T1, full length AR and AR splice variants (AR-V7, AR Δ567) (Homo sapiens, UniProt P10275)
T1 construct: endogenous in cells; host or cells: LNCaP-AR (engineered to overexpress full length AR), 22Rv1 (endogenous full length AR and AR-V7), PC3 stably expressing AR Δ567
T1 sequence (P10275 1-920): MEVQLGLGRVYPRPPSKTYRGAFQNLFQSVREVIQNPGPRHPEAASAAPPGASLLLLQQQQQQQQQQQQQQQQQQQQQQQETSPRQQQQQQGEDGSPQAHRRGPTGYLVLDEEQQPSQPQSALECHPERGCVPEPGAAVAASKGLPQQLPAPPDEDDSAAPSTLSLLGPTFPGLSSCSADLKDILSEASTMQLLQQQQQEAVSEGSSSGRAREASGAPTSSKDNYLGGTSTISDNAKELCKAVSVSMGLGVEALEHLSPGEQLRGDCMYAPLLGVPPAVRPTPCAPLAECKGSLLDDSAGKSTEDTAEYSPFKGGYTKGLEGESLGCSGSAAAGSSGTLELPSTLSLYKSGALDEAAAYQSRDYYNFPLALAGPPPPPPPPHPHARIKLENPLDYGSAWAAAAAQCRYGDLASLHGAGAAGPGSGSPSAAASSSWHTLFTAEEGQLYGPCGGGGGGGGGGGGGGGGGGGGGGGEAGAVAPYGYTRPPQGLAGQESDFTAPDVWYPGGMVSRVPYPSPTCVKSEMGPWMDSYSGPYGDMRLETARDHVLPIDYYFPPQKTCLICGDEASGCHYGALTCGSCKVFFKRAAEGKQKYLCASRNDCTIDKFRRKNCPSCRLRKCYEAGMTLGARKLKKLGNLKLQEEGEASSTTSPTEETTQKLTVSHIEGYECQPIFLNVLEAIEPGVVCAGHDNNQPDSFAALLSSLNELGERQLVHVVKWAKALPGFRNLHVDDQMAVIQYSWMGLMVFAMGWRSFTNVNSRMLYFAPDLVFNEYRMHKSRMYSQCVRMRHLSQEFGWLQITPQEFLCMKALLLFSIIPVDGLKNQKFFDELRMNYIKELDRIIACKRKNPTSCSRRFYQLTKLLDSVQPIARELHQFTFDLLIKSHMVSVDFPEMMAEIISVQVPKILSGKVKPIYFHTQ
T1 sequence (P10275 1-644 isoform P10275-3): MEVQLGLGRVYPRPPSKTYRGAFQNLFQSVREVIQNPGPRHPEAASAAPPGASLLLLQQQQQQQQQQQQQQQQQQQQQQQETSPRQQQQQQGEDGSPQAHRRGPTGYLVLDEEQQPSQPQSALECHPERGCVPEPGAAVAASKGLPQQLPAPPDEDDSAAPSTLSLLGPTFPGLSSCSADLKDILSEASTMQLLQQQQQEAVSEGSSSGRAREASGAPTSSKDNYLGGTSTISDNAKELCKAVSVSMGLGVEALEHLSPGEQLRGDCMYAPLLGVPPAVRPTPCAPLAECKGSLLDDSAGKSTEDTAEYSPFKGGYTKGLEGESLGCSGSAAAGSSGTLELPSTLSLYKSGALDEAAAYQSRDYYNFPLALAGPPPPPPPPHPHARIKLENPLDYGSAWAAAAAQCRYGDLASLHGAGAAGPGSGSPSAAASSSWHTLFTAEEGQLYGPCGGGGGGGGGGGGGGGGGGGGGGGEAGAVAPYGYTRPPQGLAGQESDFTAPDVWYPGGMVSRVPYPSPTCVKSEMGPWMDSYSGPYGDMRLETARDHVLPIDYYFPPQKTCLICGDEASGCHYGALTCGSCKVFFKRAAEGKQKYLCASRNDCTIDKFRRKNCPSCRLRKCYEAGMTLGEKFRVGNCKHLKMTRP
T1 sequence (P10275 with tags, fused parts or gaps limits assumed): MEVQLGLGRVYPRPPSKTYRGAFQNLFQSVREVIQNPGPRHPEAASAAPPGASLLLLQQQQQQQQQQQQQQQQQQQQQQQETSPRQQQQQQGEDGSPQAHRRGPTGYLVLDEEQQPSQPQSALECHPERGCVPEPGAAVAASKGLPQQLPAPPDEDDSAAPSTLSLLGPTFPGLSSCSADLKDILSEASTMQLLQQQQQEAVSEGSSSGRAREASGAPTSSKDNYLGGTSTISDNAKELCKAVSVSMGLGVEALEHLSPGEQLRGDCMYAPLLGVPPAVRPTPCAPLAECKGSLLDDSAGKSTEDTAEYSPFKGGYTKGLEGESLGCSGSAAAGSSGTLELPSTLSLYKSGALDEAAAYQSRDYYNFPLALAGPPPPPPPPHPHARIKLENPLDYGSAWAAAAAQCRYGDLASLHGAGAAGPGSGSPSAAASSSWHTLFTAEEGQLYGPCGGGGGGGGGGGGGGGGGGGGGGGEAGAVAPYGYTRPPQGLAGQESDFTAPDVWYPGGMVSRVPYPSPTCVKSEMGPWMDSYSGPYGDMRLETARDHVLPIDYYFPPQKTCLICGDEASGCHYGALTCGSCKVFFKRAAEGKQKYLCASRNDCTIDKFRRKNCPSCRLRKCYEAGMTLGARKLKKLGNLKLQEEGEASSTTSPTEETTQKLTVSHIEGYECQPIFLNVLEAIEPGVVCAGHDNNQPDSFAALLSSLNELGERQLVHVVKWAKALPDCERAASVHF
Assay: AR degradation, protein stability experiments with cycloheximide (Western blot)
Format: cell-based
Protocol: A) LNCaP-AR cells were exposed to the indicated compounds or vehicle (DMSO) in the presence of cycloheximide for the indicated times. Western blots were performed for the indicated proteins. B) Same as A but in 22Rv1 cells.

## C=C(CN(C)Cc1ccccc1)C(=O)/C(=C/c1ccc(Cl)cc1)c1ccccc1 [JN018, (E)-4-((Benzyl(methyl)amino)methyl)-1-(4-chlorophenyl)-2-phenylpenta-1,4-dien-3-one hydrochloride]
  IC50 for AR Degradation: ~2000 nM
Stably introduced into PC3 cells
  degradation of AR splice variant AR Δ567: enhanced degradation
